Test results taken from patent US20240287089A1, “Preparation and Uses of 7-Azaindenoisoquinolines” (Purdue Research Foundation, priority 0001, published 2024).
Like-named read-outs stand apart in the source and are kept apart here.

Columns and labels:
γ-H2AX [1] = assay: Western blot of MOLT-4 tumor xenograft tissue; type: in vivo, human
Excerpt: In several cases, the levels of c-Myc were more greatly depressed at the lower dose level. For examples, see the 9-hour data for G104 in Tables 17 and 18 and the 6-hour data in Table 19. […] Overall, there are many unexpected and unexplained aspects of the data in Tables 17-19, which are highly variable and also highly dependent on cell type. In particular, drug-induced increases in c-Myc expression relative to control and the larger changes in c-Myc expression seen at lower vs. higher doses are counterintuitive and unexplained.

in vivo = type: in vivo
γ-H2AX [2] = assay: Western blot of RS4;11 tumor xenograft tissue; type: in vivo, human
c-Myc = assay: Western blot of MOLT-4 tumor xenograft tissue; type: in vivo, human
[3] = test system: MOLT-4 human leukemia cells; assay: MOLT-4 xenograft in female NOD SCID mice; type: in vivo; conditions: 20 mg/kg IV, 24 days after tumor inoculation
Excerpt: Xenograft Studies. […] JQ1 was employed as a positive control.

[4] = mouse, 1 μM
Protocol: Analysis of Plasma Protein Binding and Stability in Human and Mouse Blood Plasma by Equilibrium Dialysis. Frozen plasma (stored at −80° C.) was thawed immediately in a 37° C. water bath. The working solutions of test compound and control compound were prepared in DMSO at 200 μM concentration, and the working solutions were spiked into plasma. The final concentration of compound was 1 μM. The final concentration of DMSO was 0.5%. Ketoconazole was used as positive control in the assay. The dialysis membranes were soaked in ultrapure water for 60 min to separate strips, then in 20% ethanol for 20 min, and then finally in dialysis buffer for 20 min. For equilibrium dialysis, each cell contained plasma sample (150 μL) and was dialyzed against an equal volume of dialysis buffer (PBS). The assay was performed in duplicate. The dialysis plate was sealed and incubated at 37° C. with 5% CO2 at 100 rpm for 6 h. At the end of incubation, samples (50 μL) from both buffer and plasma chambers were transferred to wells of a 96-well plate. Plasma (50 μL) was added to each buffer sample and an equal volume of PBS was added to the collected plasma sample. […] The concentrations of test compounds in the buffer and plasma chambers were determined from peak area ratios.

[5] = in vivo, iv, 20 mg/kg
Protocol: Brain Penetration Studies. […] The concentrations were determined by LC-MS/MS with direct measurement of the plasma samples. The brain tissue was homogenized with water using a 3:1 ratio of water (mL) to brain (g) before determination of the concentrations (ng/mL) in the brain homogenates, and the homogenate values then were multiplied by a factor of 4 to obtain the brain concentrations (ng/g).

[6] = Brain penetration and plasma/brain pharmacokinetics in combination with Temodar or Lynparza; conditions: for Vd: iv, 10 mg/kg, Vss—obs
Protocol: A similar analysis was performed with LMP744 and LMP400 in combination with Temodar and Lynparza.

[7] = 10 mg/kg IV + Lynparza 100 mg/kg PO, 0.25 h
[8] = 10 mg/kg IV + Lynparza 100 mg/kg PO, 0.5 h
[9] = 10 mg/kg IV + Lynparza 100 mg/kg PO, 1 h
[10] = 10 mg/kg IV + Lynparza 100 mg/kg PO, 2 h
[11] = 10 mg/kg IV + Lynparza 100 mg/kg PO, 4 h
[12] = 10 mg/kg IV + Lynparza 100 mg/kg PO, 8 h
[13] = 10 mg/kg IV + Lynparza 100 mg/kg PO, 24 h
[14] = LMP400 10 mg/kg IV + Temador 125 mg/kg PO, 0.25 h
[15] = LMP400 10 mg/kg IV + Temador 125 mg/kg PO, 0.5 h
[16] = LMP400 10 mg/kg IV + Temador 125 mg/kg PO, 2 h
[17] = LMP400 10 mg/kg IV + Temador 125 mg/kg PO, 4 h
[18] = LMP400 10 mg/kg IV + Temador 125 mg/kg PO, 8 h
[19] = LMP400 10 mg/kg IV + Temador 125 mg/kg PO, 24 h
[20] = brain, 10 mg/kg IV + Lynparza 100 mg/kg PO
[21] = brain, LMP400 10 mg/kg IV + Temador 125 mg/kg PO
[22] = plasma, 10 mg/kg IV + Lynparza 100 mg/kg PO
[23] = plasma, LMP400 10 mg/kg IV + Temador 125 mg/kg PO

CCNCCCn1c2c(c3cc(OC)c(OC)cc3c1=O)C(=O)c1cc3c(nc1-2)OCO3 [G104, 6-(3-(Ethylamino)propyl)-2,3-dimethoxy-5H-[1,3]dioxolo[4″,5″:5′,6′]pyrido [3′,2′:4,5]cyclopenta[1,2-c]isoquinoline-5,12(6H)-dione]
γ-H2AX/GAPDH, % Relative to Vehicle (γ-H2AX [1]; MOLT-4, IV 15 mg/kg, 3 h): 71.86 ± 8.95%
γ-H2AX/GAPDH, % Relative to Vehicle (γ-H2AX [1]; MOLT-4, IV 15 mg/kg, 9 h): 138.12 ± 23.51%
γ-H2AX/GAPDH, % Relative to Vehicle (γ-H2AX [1]; MOLT-4, IV 30 mg/kg, 3 h): 47.29 ± 12.20%
γ-H2AX/GAPDH, % Relative to Vehicle (γ-H2AX [1]; MOLT-4, IV 30 mg/kg, 9 h): 168.88 ± 39.58%
Kp at 3 h (in vivo; NOD SCID, mouse, tumor and plasma, RS4;11, 3 h, IV 15 mg/kg, read-out: Mean Tumor/Plasma Ratio): 76.1 ± 18.9
Mean Tumor/Plasma Ratio (in vivo; RS4;11, 3 h, IV 30 mg/kg): 77.3 ± 11.8
Mean Tumor/Plasma Ratio (in vivo; RS4;11, 9 h, IV 15 mg/kg): 130 ± 32
Mean Tumor/Plasma Ratio (in vivo; RS4;11, 9 h, IV 30 mg/kg): 112 ± 16
γ-H2AX/GAPDH, % Relative to Vehicle (γ-H2AX [2]; RS4;11, IV 15 mg/kg, 3 h): 133.08 ± 38.59%
γ-H2AX/GAPDH, % Relative to Vehicle (γ-H2AX [2]; RS4;11, IV 15 mg/kg, 9 h): 142.66 ± 23.92%
γ-H2AX/GAPDH, % Relative to Vehicle (γ-H2AX [2]; RS4;11, IV 30 mg/kg, 3 h): 150.28 ± 29.86%
γ-H2AX/GAPDH, % Relative to Vehicle (γ-H2AX [2]; RS4;11, IV 30 mg/kg, 9 h): 220.37 ± 47.79%
c-Myc/GAPDH, % Relative to Vehicle (c-Myc; MOLT-4, IV 15 mg/kg, 3 h): 119.75 ± 13.40%
c-Myc/GAPDH, % Relative to Vehicle (c-Myc; MOLT-4, IV 15 mg/kg, 9 h): 88.54 ± 7.63%
c-Myc/GAPDH, % Relative to Vehicle (c-Myc; MOLT-4, IV 30 mg/kg, 3 h): 114.32 ± 4.41%
c-Myc/GAPDH, % Relative to Vehicle (c-Myc; MOLT-4, IV 30 mg/kg, 9 h): 100.33 ± 2.35%

COc1cc2c3c(n(CCCNCCO)c(=O)c2cc1OC)-c1nc2c(cc1C3=O)OCO2 [G105, 6-(3-((2-Hydroxyethyl)amino)propyl)-2,3-dimethoxy-5H-[1,3]dioxolo[4″,5″:5′,6′]pyrido[3′,2′:4,5]cyclopenta[1,2-c]isoquinoline-5,12(6H)-dione]
average animal weight relative to initial body weight [3]: 80.9±1.1%
γ-H2AX/GAPDH, % Relative to Vehicle (γ-H2AX [1]; MOLT-4, IV 10 mg/kg, 3 h): 60.98 ± 8.93%
γ-H2AX/GAPDH, % Relative to Vehicle (γ-H2AX [1]; MOLT-4, IV 10 mg/kg, 9 h): 172.03 ± 47.41%
γ-H2AX/GAPDH, % Relative to Vehicle (γ-H2AX [1]; MOLT-4, IV 20 mg/kg, 3 h): 56.62 ± 11.87%
γ-H2AX/GAPDH, % Relative to Vehicle (γ-H2AX [1]; MOLT-4, IV 20 mg/kg, 9 h): 109.66 ± 28.34%
Mean Tumor/Plasma Ratio (in vivo; RS4;11, 3 h, IV 10 mg/kg): 62.3 ± 17.7
Mean Tumor/Plasma Ratio (in vivo; RS4;11, 3 h, IV 20 mg/kg): 111 ± 18
Mean Tumor/Plasma Ratio (in vivo; RS4;11, 9 h, IV 10 mg/kg): 185 ± 25
Mean Tumor/Plasma Ratio (in vivo; RS4;11, 9 h, IV 20 mg/kg): 383 ± 183
% Stability at 6 hrs [4]: 97.59%
γ-H2AX/GAPDH, % Relative to Vehicle (γ-H2AX [2]; RS4;11, IV 10 mg/kg, 3 h): 67.00 ± 2.90%
γ-H2AX/GAPDH, % Relative to Vehicle (γ-H2AX [2]; RS4;11, IV 10 mg/kg, 9 h): 166.37 ± 40.45%
γ-H2AX/GAPDH, % Relative to Vehicle (γ-H2AX [2]; RS4;11, IV 20 mg/kg, 3 h): 219.29 ± 82.49%
γ-H2AX/GAPDH, % Relative to Vehicle (γ-H2AX [2]; RS4;11, IV 20 mg/kg, 9 h): 540.94 ± 97.90%
c-Myc/GAPDH, % Relative to Vehicle (c-Myc; MOLT-4, IV 10 mg/kg, 3 h): 110.56 ± 4.90%
c-Myc/GAPDH, % Relative to Vehicle (c-Myc; MOLT-4, IV 10 mg/kg, 9 h): 84.53 ± 6.26%
c-Myc/GAPDH, % Relative to Vehicle (c-Myc; MOLT-4, IV 20 mg/kg, 3 h): 96.74 ± 9.71%
c-Myc/GAPDH, % Relative to Vehicle (c-Myc; MOLT-4, IV 20 mg/kg, 9 h): 83.89 ± 10.06%
AUCInf ([5]; male, CD1, mouse): 2949 ng·h/mL
AUClast ([5]; male, CD1, mouse): 2847 ng·h/mL
C0 ([5]; male, CD1, mouse): 3904 ng/mL
Cl_obs ([5]; male, CD1, mouse): 113 mL/min/kg
MRTInf—obs ([5]; male, CD1, mouse): 4.12 h
T1/2 ([5]; male, CD1, mouse): 6.18 h
Brain/Plasma Conc Ratio ([5]; male, CD1, mouse, 0.25 h): 0.42
Brain/Plasma Conc Ratio ([5]; male, CD1, mouse, 0.5 h): 0.44
Brain/Plasma Conc Ratio ([5]; male, CD1, mouse, 1 h): 0.73
Brain/Plasma Conc Ratio ([5]; male, CD1, mouse, 2 h): 1.45
Brain/Plasma Conc Ratio ([5]; male, CD1, mouse, 4 h): 2.71
Brain/Plasma Conc Ratio ([5]; male, CD1, mouse, 8 h): 10.2
AUClast ([5]; mouse): 9698 ng·h/g

COc1cc2c3c(n(CCCN4CCOCC4)c(=O)c2cc1OC)-c1cc2c(cc1C3=O)OCO2 [LMP400, indotecan]
Brain Conc [6, 7]: 14924 ± 107 nM
Brain/Plasma Conc Ratio [6, 7]: 4.58
Plasma Conc [6, 7]: 3258 ± 295 nM
Brain Conc [6, 8]: 12083 ± 1787 nM
Brain/Plasma Conc Ratio [6, 8]: 5.42
Plasma Conc [6, 8]: 2231 ± 419 nM
Brain Conc [6, 9]: 6670 ± 431 nM
Plasma Conc [6, 9]: 1787 ± 169 nM
Brain Conc [6, 10]: 3766 ± 408 nM
Brain/Plasma Conc Ratio [6, 10]: 2.73
Plasma Conc [6, 10]: 1381 ± 84 nM
Brain Conc [6, 11]: 2666 ± 265 nM
Brain/Plasma Conc Ratio [6, 11]: 2.83
Plasma Conc [6, 11]: 941 ± 190 nM
Brain Conc [6, 12]: 1162 ± 104 nM
Plasma Conc [6, 12]: 491 ± 53 nM
Brain Conc [6, 13]: 235 ± 76 nM
Plasma Conc [6, 13]: 111 ± 39 nM
Brain/Plasma Conc Ratio [6, 14]: 5.99
Plasma Conc [6, 14]: 2311 ± 274 nM
Brain Conc [6, 15]: 10074 ± 1157 nM
Brain/Plasma Conc Ratio [6, 15]: 5.20
Plasma Conc ([6]; LMP400 10 mg/kg IV + Temador 125 mg/kg PO, 1 h): 1944 ± 211 nM
Brain/Plasma Conc Ratio [6, 16]: 3.16
Plasma Conc [6, 16]: 1041 ± 57 nM
Brain Conc [6, 17]: 1722 ± 226 nM
Brain/Plasma Conc Ratio [6, 17]: 2.79
Plasma Conc [6, 17]: 617 ± 24 nM
Brain Conc [6, 18]: 919 ± 165 nM
Brain/Plasma Conc Ratio [6, 18]: 1.91
Plasma Conc [6, 18]: 481 ± 104 nM
Brain Conc [6, 19]: 177 ± 70 nM
Brain/Plasma Conc Ratio [6, 19]: 0.96
AUCInf [6, 20]: 20928 ng·h/g
AUClast [6, 20]: 19983 ng·h/g
AUC—% Extrap—obs [6, 20]: 4.51%
Cmax [6, 20]: 12173 ng/g
T1/2 [6, 20]: 6.01 h
AUCInf [6, 21]: 16590 ng·h/g
AUClast [6, 21]: 15811 ng·h/g
AUC—% Extrap—obs [6, 21]: 4.70%
Cmax [6, 21]: 9080 ng/g
MRTInf—obs [6, 21]: 5.67 h
T1/2 [6, 21]: 6.35 h
Tmax [6, 21]: 4.98 min
concentration at 0.25 h ([6]; mouse, brain, intravenous, Brain Conc, LMP400 10 mg/kg IV + Temador 125 mg/kg PO, 0.25 h): 13800 ± 638 nM
concentration at 1 h ([6]; mouse, brain, intravenous, Brain Conc, LMP400 10 mg/kg IV + Temador 125 mg/kg PO, 1 h): 5360 ± 276 nM
concentration at 2 h ([6]; mouse, brain, intravenous, Brain Conc, LMP400 10 mg/kg IV + Temador 125 mg/kg PO, 2 h): 5290 ± 321 nM
concentration at 0.5 h ([6]; mouse, plasma, intravenous, Plasma Conc, LMP400 10 mg/kg IV + Temador 125 mg/kg PO, 0.5 h): 1940 ± 274 nM
Vd ([6]; mouse, plasma, plasma, 10 mg/kg IV + Lynparza 100 mg/kg PO): 10.4 L/kg
Vd ([6]; mouse, plasma, plasma, LMP400 10 mg/kg IV + Temador 125 mg/kg PO): 11.9 L/kg
AUCInf [6, 22]: 7144 ng·h/mL
AUClast [6, 22]: 6642 ng·h/mL
AUClast/D [6, 22]: 664 h·ng/mL per mg/kg
AUC—% Extrap—obs [6, 22]: 7.02%
C0 [6, 22]: 2286 ng/mL
Cl_obs [6, 22]: 23.3 mL/min/kg
T1/2 [6, 22]: 6.74 h
AUCInf [6, 23]: 6248 ng·h/mL
AUClast [6, 23]: 5823 ng·h/mL
AUClast/D [6, 23]: 582 h·ng/mL per mg/kg
AUC—% Extrap—obs [6, 23]: 6.80%
C0 [6, 23]: 3042 ng/mL
Cl_obs [6, 23]: 26.7 mL/min/kg
MRTInf—obs [6, 23]: 7.41 h
T1/2 [6, 23]: 7.03 h
